From BindingDB's records for doi:10.1021/jm00105a058 (J. Uriach & Cía., 1991)

assay: Inhibitory activity expressed as the concentration required to inhibit platelet-activating factor (PAF) induced maximum aggregation by 50%

| Structure (SMILES) | IC50 |
| --- | --- |
| CCCCCCCCCCCCCCCCCC1OCC(COCCCCCC[N+]2(C)CCOCC2)O1 (stereo not given) | 10000 nM |
| CCCCCCCCCCCCCC1OCC(COC(=O)CCCCC[n+]2ccsc2)O1 (stereo not given) | 20000 nM |
| CCCCCCCCCCCCCCC1COC(COCCCCCC[n+]2ccsc2)C1 (stereo not given) | 2100 nM |
| CCCCCCCCCCCCCCCCOCC1COC(COC(=O)N(Cc2cccc[n+]2CC)C(C)=O)C1 (stereo not given) | 18 nM |
| CCCCCCCCCCCCCCCCCC1OCC(COC(=O)CCCCC[n+]2ccsc2)O1 (stereo not given) | 1100 nM |
| CCCCCCCCCCCCCCCCCC1OCC(COP(=O)([O-])OCC[n+]2ccccc2)O1 (stereo not given) | > 100000 nM |
| CCCCCCCCCCCCCCCCCCOCC1OCC(COC(=O)N(Cc2cccc[n+]2CC)C(C)=O)O1 (stereo not given) | 140 nM |
| CCCCCCCCCCCCCCCC1CCC(COC(=O)CCCCC[n+]2ccsc2)O1 (stereo not given) | 3100 nM |
| CCCCCCCCCCCCCCC1COC(COC(=O)CCCCC[n+]2ccsc2)C1 (stereo not given) | > 50000 nM |
| CCCCCCCCCCCCCCCCCC1OCC(COCCCCCCCC[n+]2ccsc2)O1 (stereo not given) | 3700 nM |
| CCCCCCCCCCCCCCCCCC1OCC(COCCCCCC[n+]2cccc3ccccc32)O1 (stereo not given) | 2700 nM |
| CCCCCCCCCCCCCCCCCCOCC1COC(COC(=O)N(Cc2cccc[n+]2CC)C(C)=O)O1 (stereo not given) | 94 nM |
| CCCCCCCCCCCCCCCCOCC1OCC(COCCCCCC[n+]2ccsc2)O1 (stereo not given) | 1300 nM |
| CCCCCCCCCCCCCCCC1CCC(COC(=O)N(Cc2cccc[n+]2CC)C(C)=O)O1 (stereo not given) | 80 nM |
| CCCCCCCCCCCCCCCCCC1OCC(COCCCCCC[n+]2ccsc2)O1 (stereo not given) | 1400 nM |
| CCCCCCCCCCCCCCCC1CCC(COCCCCCC[n+]2ccsc2)O1 (stereo not given) | 1300 nM |
| CCCCCCCCCCCCCCCCCCOCC1COC(COC(=O)N(Cc2cccc[n+]2CC)C(C)=O)C1 (stereo not given) | 52 nM |
| CCCCCCCCCCCCCCCCCC1OCC(COCCCCCC[n+]2cscc2C)O1 (stereo not given) | 3100 nM |
| CCCCCCCCCCCCCCCCOCC1OCC(COC(=O)CCCCC[n+]2ccsc2)O1 (stereo not given) | 4900 nM |
| CCCCCCCCCCCCCCCCOCC1COC(COC(=O)NCc2cccc[n+]2CC)C1 (stereo not given) | 5300 nM |

| Structure (SMILES) | IC50 |
| --- | --- |
| CCCCCCCCCCCCCCC1COC(COCCCC[n+]2ccsc2)C1 (stereo not given) | 39000 nM |
| CCCCCCCCCCCCCCCCCC1OCC(COC(=O)N(Cc2cccc[n+]2CC)C(C)=O)O1 (stereo not given) | 210 nM |
| CCCCCCCCCCCCCCCCOCC1CC(COCCCCCC[n+]2ccsc2)CO1 (stereo not given) | 1400 nM |
| CCCCCCCCCCCCCCCCOCC1COC(COCCCCCC[n+]2ccsc2)C1 (stereo not given) | 540 nM |
| CCCCCCCCCCCCCCCCCCOCC1COC(COC(=O)N(Cc2ccc[n+](CC)c2)C(C)=O)C1 (stereo not given) | 2500 nM |
| CCCCCCCCCCCCCCCCCC1OCC(COCCCC[n+]2ccsc2)O1 (stereo not given) | 6000 nM |
| CCCCCCCCCCCCCCCCC1COC(COCCCCCCC[n+]2ccsc2)C1 (stereo not given) | 1700 nM |
| CCCCCCCCCCCCCCCC1OCC(COC(=O)CCCCC[n+]2ccsc2)O1 (stereo not given) | 3000 nM |
| CCCCCCCCCCCCCCCCOCC1COC(COC(=O)N(Cc2cccc[n+]2C)C(C)=O)C1 (stereo not given) | 200 nM |
| CCCCCCCCCCCCOCC1COC(COCCCCCCC[n+]2ccsc2)C1 (stereo not given) | 1100 nM |
| CCCCCCCCCCCCCCCCOCC1COC(COC(=O)N(Cc2ccccn2)C(C)=O)C1 (stereo not given) | 11000 nM |
| CCCCCCCCCCCCCCCCOCC1COC(COC(=O)N(C(C)=O)c2ccc[n+](CC)c2)C1 (stereo not given) | 2300 nM |
| CCCCCCCCCCCCCCCCCC1COC(COC(=O)N(Cc2cccc[n+]2CC)C(C)=O)O1 (stereo not given) | 24 nM |
| CCCCCCCCCCCCCCCCCCC1COC(COC(=O)N(Cc2cccc[n+]2CC)C(C)=O)C1 (stereo not given) | 470 nM |
| CCCCCCCCCCCCCCCCCCOCC1COC(COC(=O)N=c2ccn(CC)cc2)C1 (stereo not given) | 1900 nM |
| CCCCCCCCCCCCCCCCCCOCC1CC(COCCCCC[n+]2ccsc2)CO1 (stereo not given) | 2100 nM |
| CC1OCC(COC(=O)CCCCC[n+]2ccsc2)O1 (stereo not given) | 150000 nM |
| CCCCCCCCCCCCCCCCOCC1COC(COC(=O)N(Cc2cccc[n+]2CC)C(=O)OCC)C1 (stereo not given) | 73 nM |
| CCCCCCCCCCCCCCCCOCC1COC(COC(=O)N(Cc2cccc[n+]2CC)C(C)=O)O1 (stereo not given) [2-{[Acetyl-(4-hexadecyloxymethyl-[1,3]dioxolan-2-ylmethoxycarbonyl)-amino]-methyl}-1-ethyl-pyridinium; chloride] | 19 nM |

Now from value to molecule:

| IC50 | Structure (SMILES) |
| --- | --- |
| 83 nM | CCCCCCCCCCCCCCCCOCC1OCC(COC(=O)N(Cc2cccc[n+]2CC)C(C)=O)O1 (stereo not given) |
| 8000 nM | CCCCCCCCCCCCCCCCCCOCC1COC(COC(=O)NCc2cc[n+](CC)cc2)C1 (stereo not given) |
| 1400 nM | CCCCCCCCCCCCCCOCC1COC(COCCCCCC[n+]2ccsc2)C1 (stereo not given) |
| 3000 nM | CCCCCCCCCCCCCCCCCC1OCC(COCCCCCC[n+]2ccccc2)O1 (stereo not given) |
| 85 nM | CCCCCCCCCCCCCCOCC1COC(COC(=O)N(Cc2cccc[n+]2CC)C(C)=O)C1 (stereo not given) |
| 9200 nM | CCCCCCCCCCCCCCCCCCOCC1COC(COC(=O)CCCCC[n+]2ccsc2)C1 (stereo not given) |
| 3600 nM | CCCCCCCCCCCCCCCCOCC1COC(COC(=O)CCCCC[n+]2ccsc2)C1 (stereo not given) |
| > 100000 nM | CCCCCCCCCCCCCCC1COC(COP(=O)([O-])OCC[n+]2ccccc2)C1 (stereo not given) |
| 3900 nM | CCCCCCCCCCCCCCCCCCOCC1CC(COCCCCCCC[n+]2ccsc2)CO1 (stereo not given) |
| 2800 nM | CCCCCCCCCCCCCCCCOCC1COC(COC(=O)NCCc2cccc[n+]2CC)C1 (stereo not given) |
| > 100000 nM | CCCCCCCCCCCCCCC1COC(COP(=O)([O-])OCC[n+]2ccsc2)C1 (stereo not given) |
| 1500 nM | CCCCCCCCCCCCCCCCCCOCC1CC(COC(=O)CCCCC[n+]2ccsc2)CO1 (stereo not given) |
| 1700 nM | CCCCCCCCCCCCCCOCC1COC(COCCCCCCC[n+]2ccsc2)C1 (stereo not given) |
| 2600 nM | CCCCCCCCCCCCCCCCOCC1COC(COC(=O)N(CCc2cccc[n+]2CC)C(C)=O)C1 (stereo not given) |
| 110 nM | CCCCCCCCCCCCCCOCC1COC(COC(=O)N(Cc2cccc[n+]2CC)C(C)=O)O1 (stereo not given) |
| 1600 nM | CCCCCCCCCCCCCCCCCCOCC1COC(COC(=O)N(Cc2cc[n+](CC)cc2)C(C)=O)C1 (stereo not given) |
| 71 nM | CCCCCCCCCCCCCCCCCC1CCC(COC(=O)N(Cc2cccc[n+]2CC)C(C)=O)O1 (stereo not given) |
| 140 nM | CCCCCCCCCCCCCCC1COC(COC(=O)N(Cc2cccc[n+]2CC)C(C)=O)C1 (stereo not given) |
| > 200000 nM | CCCCCCCCCCCCCCC1COC(COP(=O)([O-])OCC[N+](C)(C)C)C1 (stereo not given) |
| 830 nM | CCCCCCCCCCCCCCC1COC(COCCCCCCC[n+]2ccsc2)C1 (stereo not given) |
| 2400 nM | CCCCCCCCCCCCCCCCCC1OCC(COCCCCCC[N+](C)(C)C)O1 (stereo not given) |
| 1200 nM | CCCCCCCCCCCCCCCCOCC1OCC(COCCCC[n+]2ccsc2)O1 (stereo not given) |
| 99 nM | CCCCCCCCCCCCCCCCOCC1CCC(COC(=O)N(Cc2cccc[n+]2CC)C(C)=O)O1 (stereo not given) |
| > 100000 nM | CCCCCCCCCCCCCCCCCC1OCC(COP(=O)([O-])OCC[N+](C)(C)C)O1 (stereo not given) |
| 1100 nM | CCCCCCCCCCCCCCC1COC(COCCCCCCCC[n+]2ccsc2)C1 (stereo not given) |
| 860 nM | CCCCCCCCCCCCCCCCOCC1COC(COC(=O)N(C(C)=O)c2cc[n+](CC)cc2)C1 (stereo not given) |
| 5500 nM | CCCCCCCCCCCCCCCCCCCC1OCC(COC(=O)CCCCC[n+]2ccsc2)O1 (stereo not given) |
| 1900 nM | CCCCCCCCCCCCCCC1COC(COCCCCCC[n+]2cccc3ccccc32)C1 (stereo not given) |
| 8200 nM | CCCCCCCCCCCCCCC1COC(COCCCCCC[N+](C)(C)C)C1 (stereo not given) |

assay: as above; remark: another data set of the same source

| IC50 | Structure (SMILES) |
| --- | --- |
| 8.2 nM | CCCCCCCCCCCCCCCCOCC1COC(COC(=O)N(Cc2cccc[n+]2CC)C(C)=O)C1 (stereo not given) |
| 15 nM | CCCCCCCCCCCCCCCCOCC1COC(COC(=O)N(Cc2cccc[n+]2CC)C(C)=O)O1 (stereo not given) [2-{[Acetyl-(4-hexadecyloxymethyl-[1,3]dioxolan-2-ylmethoxycarbonyl)-amino]-methyl}-1-ethyl-pyridinium; chloride] |
